Assays:
kinase SRC = kinase SRC (Homo sapiens, UniProt P12931); assay: Kinase SRC inhibitory activity with and without heating/cooling; format: biochemical; settings: for inhibitory activity on SRC compared with DYRK1A: temperature jump; for inhibition of kinase SRC: with and without heating/cooling, IC80 concentration for temperature-jump inhibition of DYRK1A
Description: (§1) Here, inhibitory effects on other kinases were studied.
(§2) As a result, for the kinase DYRK1A, the upper-limit temperature of 67.0° C. and lower-limit temperature of 57.5° C. were calculated as temperature conditions based on the measured data, as shown in FIG. 16. Consequently, the setpoint heating temperature for the temperature jump test was set to 62.0° C. […] Consequently, the setpoint heating temperature for the temperature jump test was set to 53.7° C. Also, for the kinase SRC, the upper-limit temperature of 59.6° C. and lower-limit temperature of 51.4° C. were calculated as temperature conditions based on the measured data, as shown in FIG. 18. Consequently, the setpoint heating temperature for the temperature jump test was set to 55.5° C. Also, for the kinase ABL, the upper-limit temperature of 55.6° C. and lower-limit temperature of 47.3° C. were calculated as temperature conditions based on the measured data, as shown in FIG. 19. Consequently, the setpoint heating temperature for the temperature jump test was set to 52.0° C.

Kinase DYRK1A = Kinase DYRK1A (Homo sapiens, UniProt Q13627); assay: Kinase DYRK1A enzymatic activity (Kinase Glo, remaining ATP) with or without heating/quick cooling (temperature jump); format: biochemical; settings: for inhibitory effect on the complete protein that was not heated/cooled: no heating/cooling (conventional evaluation); for inhibitory effect specific to the folding intermediate undergoing heating/cooling: with versus without heating/cooling (temperature jump)
Description: Lastly, in the embodiment, the effect of the presence of the candidate functional substance in influencing the function of the protein is determined (step C). For example, what is determined is, such as, inhibitory effect when searching for an inhibitor, accelerative effect when searching for an accelerator, coagulative effect when searching for a coagulant, stabilizing effect when searching for a stabilizer, or activating effect when searching for an activator, as a functional substance. […] As an example, in this process a determination can be made by using the Promega Kinase Glo assay kit, etc., to quantify the amount of ATP remaining in the tube, and thereby measuring its enzymatic activity. It should be noted that the determination of inhibitory effect is not limited to one based on use of the aforementioned kit, etc.
• Kinase DYRK1A protein mass: 25 ng • DMSO concentration: 0.3% in 25 μL • ATP/substrate peptide (DYRKtide peptide: amino-acid sequence […]) concentration: 5 μM each • Volume at enzymatic reaction: 25 μL • Volume in thermal cycler (Biometra TAdvanced Model 96SG): 15 μL • Enzymatic reaction period: 2 hrs.
• 1. The DYRK1A protein, inhibitors (solvent DMSO alone was added in the case of “Inhibitor 0 μM”), buffer (final concentrations: 5 mM MOPS pH7.2, 2.5 mM beta-glycerol-phosphate, 5 mM MgCl2, 1 mM EGTA, 0.4 mM EDTA, 0.05 mM DTT) and ultrapure water were mixed in tubes placed in a white 96-well PCR plate. [Volume: 15 μL, DYRK1A protein mass: 25 ng, inhibitor concentration: 30 μM] • 2. The plate was set in a thermal cycler and heated for 20 seconds at each heating temperature, and then cooled for 10 seconds at 3° C. [Rate of heating/rate of cooling both 8° C./sec.] • 3. Upon completion of cooling, it was removed immediately and 10 μL of ATP/substrate peptide mixture solution was added. [Volume: 15 μL→25 μL, ATP/substrate peptide concentration 5 μM] • 4. It was set in the thermal cycler again to cause enzymatic reaction for 2 hours […] at 20° C. • 5. It was picked up from the thermal cycler and 25 μL of Kinase Glo reaction solution was added, and from the resulting luminescence value, the remaining amount of ATP was measured to evaluate the enzymatic activity. [Volume: 25 μL 50 μL]

kinase DYRK1B = kinase DYRK1B (Homo sapiens, UniProt Q9Y463); assay: Kinase DYRK1B inhibitory activity with and without heating/cooling; format: biochemical; settings: for inhibitory activity without heating/cooling: complete protein not heated/cooled; for inhibitory effect specific to the folding intermediate undergoing heating/cooling: with versus without heating/cooling
Description: Consequently, the setpoint heating temperature for the temperature jump test was set to 62.0° C. […] Consequently, the setpoint heating temperature for the temperature jump test was set to 52.0° C.

ABL in HEK293 cells = ABL in HEK293 cells (Homo sapiens, UniProt P00519); assay: Western blotting detection of ABL in cultured cell line HEK293; settings: HEK293 cultured for 4 days in the presence of compound
Description: Additionally, a western blotting detection using the cultured cell line HEK293 was conducted. […] Using the SDS-PAGE and western blotting methods, ABL and GAPDH were detected using antibodies specific to the two.

kinase ABL = kinase ABL (Homo sapiens, UniProt P00519); assay: Kinase ABL inhibitory activity with and without heating/cooling; format: biochemical
Description: as §1, §2

monoamine oxidase MAO-A = molecular target: T1, monoamine oxidase MAO-A (Homo sapiens, UniProt P21397); assay: Small-scale screening on monoamine oxidase MAO-A with temperature jump (MAO-A-Glo Assay); format: biochemical; settings: temperature jump 69.2° C; plant-derived compound library (1 to 34)
T1 sequence (P21397 1-527): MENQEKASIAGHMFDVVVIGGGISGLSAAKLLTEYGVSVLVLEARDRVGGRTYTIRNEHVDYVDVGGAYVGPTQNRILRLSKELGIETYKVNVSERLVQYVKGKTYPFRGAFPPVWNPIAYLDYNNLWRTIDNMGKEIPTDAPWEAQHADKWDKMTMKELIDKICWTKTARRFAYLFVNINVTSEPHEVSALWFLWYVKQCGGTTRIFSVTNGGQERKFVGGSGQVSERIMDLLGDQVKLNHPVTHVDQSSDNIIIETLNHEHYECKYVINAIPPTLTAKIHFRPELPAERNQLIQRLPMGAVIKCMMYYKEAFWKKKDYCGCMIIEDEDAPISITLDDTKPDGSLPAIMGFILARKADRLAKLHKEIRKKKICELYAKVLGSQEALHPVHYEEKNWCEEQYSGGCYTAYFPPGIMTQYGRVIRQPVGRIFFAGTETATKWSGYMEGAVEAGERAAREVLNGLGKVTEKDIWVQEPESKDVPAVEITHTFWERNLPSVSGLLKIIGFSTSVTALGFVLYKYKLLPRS
Description: Also, the monoamine oxidase MAO-A was studied as a way to set the upper-limit temperatures and lower-limit temperatures in FIG. 11 to FIG. 13. FIG. 20 is a figure showing the study results on upper-limit temperature and lower-limit temperature for the monoamine oxidase MAO-A. It should be noted that the test was conducted according to the product manual for Promega's MAO-A-Glo™ Assay Systems. It should be noted that the relative enzymatic activity was calculated based on the enzymatic activity at 40° C. being 1.0.
As a result, for the […] MAO-A, the upper-limit temperature of 76.4° C. and lower-limit temperature of 62.0° C. were calculated as temperature conditions based on the measured data, as shown in FIG. 20. Consequently, the setpoint heating temperature for the temperature jump test was set to 69.2° C. FIG. 21 is a figure showing the small-scale inhibitor screening results with respect to the monoamine oxidase MAO-A.

DYRK1A in HEK293 cells = molecular target: T2, DYRK1A in HEK293 cells (Homo sapiens, UniProt Q13627); assay: Western blotting detection of DYRK1A in cultured cell line HEK293; format: cell-based; settings: HEK293 cultured for 4 days in the presence of compound
T2 construct: endogenous in cells; host or cells: HEK293
Description: To be more specific, a study was conducted by western blotting using the cultured cell line HEK293.

Chain of kinase SRC (P12931 whole entry): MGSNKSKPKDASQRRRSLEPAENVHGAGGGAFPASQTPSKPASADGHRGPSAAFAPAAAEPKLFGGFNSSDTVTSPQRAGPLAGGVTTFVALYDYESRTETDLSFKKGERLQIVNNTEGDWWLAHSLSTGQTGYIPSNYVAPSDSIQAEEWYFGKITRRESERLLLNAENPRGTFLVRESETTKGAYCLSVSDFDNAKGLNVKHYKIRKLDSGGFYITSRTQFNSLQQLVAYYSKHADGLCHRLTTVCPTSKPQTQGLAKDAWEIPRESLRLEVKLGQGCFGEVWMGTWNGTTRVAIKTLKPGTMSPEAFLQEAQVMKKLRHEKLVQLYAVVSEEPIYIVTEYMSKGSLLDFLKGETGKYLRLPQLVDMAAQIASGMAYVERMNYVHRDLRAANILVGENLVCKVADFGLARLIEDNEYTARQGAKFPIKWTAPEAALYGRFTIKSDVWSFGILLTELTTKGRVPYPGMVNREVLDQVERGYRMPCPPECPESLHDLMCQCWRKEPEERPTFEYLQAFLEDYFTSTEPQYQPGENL
Chain of kinase DYRK1B (Q9Y463 whole entry): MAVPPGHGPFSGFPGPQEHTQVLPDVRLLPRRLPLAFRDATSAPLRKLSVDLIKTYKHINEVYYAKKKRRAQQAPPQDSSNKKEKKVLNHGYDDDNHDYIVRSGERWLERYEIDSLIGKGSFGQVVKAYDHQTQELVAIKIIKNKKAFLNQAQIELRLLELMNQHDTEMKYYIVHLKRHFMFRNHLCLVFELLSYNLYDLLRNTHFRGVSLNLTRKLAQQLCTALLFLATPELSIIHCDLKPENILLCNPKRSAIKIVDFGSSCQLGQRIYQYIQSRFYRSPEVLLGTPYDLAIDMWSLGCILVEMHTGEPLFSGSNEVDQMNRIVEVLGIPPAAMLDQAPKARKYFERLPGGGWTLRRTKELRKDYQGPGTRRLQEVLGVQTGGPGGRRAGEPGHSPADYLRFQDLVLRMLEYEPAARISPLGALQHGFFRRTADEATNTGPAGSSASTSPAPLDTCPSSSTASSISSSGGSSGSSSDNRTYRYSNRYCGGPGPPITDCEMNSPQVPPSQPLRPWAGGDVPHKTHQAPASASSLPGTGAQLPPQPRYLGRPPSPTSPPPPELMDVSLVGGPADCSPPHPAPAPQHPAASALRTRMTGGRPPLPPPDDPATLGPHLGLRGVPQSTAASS
Chain of kinase ABL (P00519 whole entry): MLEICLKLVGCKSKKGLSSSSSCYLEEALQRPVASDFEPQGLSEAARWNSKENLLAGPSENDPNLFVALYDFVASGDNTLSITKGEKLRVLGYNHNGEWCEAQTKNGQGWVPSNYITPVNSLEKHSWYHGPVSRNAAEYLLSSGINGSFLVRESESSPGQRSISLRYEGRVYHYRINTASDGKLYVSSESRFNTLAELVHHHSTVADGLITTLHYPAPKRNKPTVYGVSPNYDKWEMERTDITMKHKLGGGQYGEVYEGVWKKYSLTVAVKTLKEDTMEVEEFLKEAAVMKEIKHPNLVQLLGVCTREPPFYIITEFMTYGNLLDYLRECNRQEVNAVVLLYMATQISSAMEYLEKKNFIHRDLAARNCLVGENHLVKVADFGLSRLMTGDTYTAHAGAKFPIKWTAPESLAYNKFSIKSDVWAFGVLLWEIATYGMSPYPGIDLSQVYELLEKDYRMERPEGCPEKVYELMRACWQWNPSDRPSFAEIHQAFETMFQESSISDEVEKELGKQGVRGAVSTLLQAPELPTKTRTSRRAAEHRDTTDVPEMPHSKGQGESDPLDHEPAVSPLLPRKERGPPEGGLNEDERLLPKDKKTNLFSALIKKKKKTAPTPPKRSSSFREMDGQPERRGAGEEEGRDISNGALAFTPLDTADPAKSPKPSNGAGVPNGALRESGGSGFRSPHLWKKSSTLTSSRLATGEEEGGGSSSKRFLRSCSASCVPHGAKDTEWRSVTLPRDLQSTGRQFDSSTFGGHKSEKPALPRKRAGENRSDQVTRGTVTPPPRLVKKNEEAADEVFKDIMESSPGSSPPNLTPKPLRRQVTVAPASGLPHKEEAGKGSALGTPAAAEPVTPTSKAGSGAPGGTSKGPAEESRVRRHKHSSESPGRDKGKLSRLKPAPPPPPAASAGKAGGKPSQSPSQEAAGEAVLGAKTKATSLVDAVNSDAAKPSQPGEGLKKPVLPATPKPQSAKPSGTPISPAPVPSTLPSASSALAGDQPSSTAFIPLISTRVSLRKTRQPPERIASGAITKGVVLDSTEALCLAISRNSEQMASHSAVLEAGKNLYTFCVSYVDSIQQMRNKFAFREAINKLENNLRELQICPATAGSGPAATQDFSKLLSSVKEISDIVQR
Chain of ABL in HEK293 cells (P00519 whole entry): as above

Structure (SMILES) | inhibitory activity on SRC compared with DYRK1A (kinase SRC) | inhibition of kinase SRC (kinase SRC) | inhibitory effect on the complete protein that was not heated/cooled (Kinase DYRK1A) | inhibitory effect specific to the folding intermediate undergoing heating/cooling (Kinase DYRK1A) | inhibitory activity without heating/cooling (kinase DYRK1B) | inhibitory effect specific to the folding intermediate undergoing heating/cooling (kinase DYRK1B) | further results
COc1ccc(/C=C2\SC(=S)NC2=O)cc1C#C[Si](C)(c1ccccc1)c1ccccc1 [compound 168] | weaker than those on DYRK1A | inhibited the kinase SRC in a temperature jump-dependent manner | – | – | – | – | –
CCOc1cc(/C=C2\SC(=S)NC2=O)ccc1O [RD0392] | – | – | exhibited an inhibitory effect | did not exhibit a specific inhibitory effect | exhibited an inhibitory effect | did not exhibit a specific inhibitory effect | –
COc1ccc(/C=C2\SC(=S)NC2=O)cc1C#C[Si](C)(C)C [FINDY] | weaker than those on DYRK1A | inhibited the kinase SRC in a temperature jump-dependent manner | – | – | – | – | ABL band in western blotting (activity to decompose/remove ABL) (ABL in HEK293 cells): became fainter; inhibitory activity on ABL compared with DYRK1A (kinase ABL; temperature jump): stronger than that on DYRK1A; inhibition of kinase ABL (kinase ABL; with and without heating/cooling): strongly inhibited the kinase ABL in a temperature jump-dependent manner
COc1ccc2c(c1)[nH]c1c(C)nccc12 [Harmine] | – | – | exhibited an inhibitory effect | did not exhibit a specific inhibitory effect | exhibited an inhibitory effect | did not exhibit a specific inhibitory effect | –
O=C(O[C@H]1Cc2ccccc2C[C@H]1OC(=O)c1cc(O)c(O)c(O)c1)c1cc(O)c(O)c(O)c1 [compound No. 2] | – | – | – | exhibited a specific inhibitory effect only with the folding intermediate | – | – | temperature jump-dependent inhibitory activity on MAO-A (monoamine oxidase MAO-A): temperature jump-dependent inhibitory activity was confirmed; DYRK1A band in western blotting (activity to decompose/remove DYRK1A) (DYRK1A in HEK293 cells): became fainter

From patent US20240013855A1, “METHOD OF SEARCHING FOR SPECIFIC-BINDING FUNCTIONAL SUBSTANCES, SPECIFIC-BINDING FUNCTIONAL SUBSTANCE SEARCH SYSTEM, SPECIFIC-BINDING FUNCTIONAL SUBSTANCE SEARCH METHOD, AND PROGRAM” (SHINSHU UNIVERSITY, priority 2020, published 2024)
